Measured values from patent US4593090A, “Novel nitrosourea compounds, method for preparing same, and pharmaceutical composition containing same” (Gogo Kimura, priority 1981, dated 1986).
Where two headings read alike, the source gives them in different places.

What was measured:
[1] = Diuretic activity, acute sodium loaded mouse screening test; format: in vivo, male mice; conditions: 50 mg/kg oral in 1% saline; for Cl^- / K^+ / Na^+: urine
Description: The diuretic activity of the compounds of this invention was assayed by the diuresis screening test referred to as "acute sodium loaded mouse". This test was carried out by the following method.
The acute sodium loaded mouse screening test was carried out by using a 10-membered group of male mice (each weighing 18 to 24 g). Test compounds were incorporated in 1% saline (NaCl) solution and orally administered in a volume of 10 ml/kg. The mice were placed in metabolic cages. Each treated group consisted of 10-members. Five members were placed in one cage. Tests were conducted by oral administrations of (A) 1% saline (NaCl) solution to the control group and (B) 1% saline (NaCl) solution containing a test compound according to this invention.
The determination was carried out for sodium, potassium, and chlorine in each pooled urine sample. The determination of sodium and potassium was carried out by flame photometer. Chlorine was determined by chloride analysis apparatus. The analytical values of sodium, potassium, and chlorine were shown with an average mg equivalent (m Eq)/Kg/5 hours, and the diuretic activity was shown with an average urine volume (ml)/Kg/5 hours.

Ehrlich acites carcinoma = assay: Growth-inhibiting effect against Ehrlich acites carcinoma; format: in vivo, male mice; conditions: 5 days; for response vs control in vivo at 50 mg/kg / response vs control in vivo at 200 mg/kg / response vs control in vivo at 25 mg/kg / response vs control in vivo at 100 mg/kg / response vs control in vivo at 3.2 mg/kg / response vs control in vivo at 12.5 mg/kg: Mus musculus, Ehrlich, 120 h; for response vs control in vivo at 50 mg/kg: 50 mg/kg/day ip; for response vs control in vivo at 200 mg/kg: 200 mg/kg/day ip; for response vs control in vivo at 25 mg/kg: 25 mg/kg/day ip; for response vs control in vivo at 100 mg/kg: 100 mg/kg/day ip; for response vs control in vivo at 3.2 mg/kg: 3.2 mg/kg/day ip; for response vs control in vivo at 12.5 mg/kg: 12.5 mg/kg/day ip
Procedure, shortened: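 Activity graded from T/C% of total packed ascites cell volume on day 7 (treated vs untreated): - 100-66, + 65-41, ++ 40-11, +++ 10-0. Groups of 6 male mice bore 1×10^7 i.p.-implanted cells and received compound (1% Nikkol HCO-60) i.p. daily for 5 days from 24 hrs after implantation.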

Leukemia L1210 [2] = assay: Activity against Leukemia L1210, intraperitoneal, increase in life span of mice; format: in vivo, female mice (BDF1 family); conditions: for ED (maximum ILS) / ED30: Mus musculus, L1210, ip, ip once a day for 5 successive days; for ED (maximum ILS): daily dosage giving maximum increase of life span, read-out: O.D. (optimum dosage); for ED30: daily dosage increasing average survival days by 30%, read-out: ILS30; for Survivors after 60 days / Max. ILS % / Therapeutic ratio TR: ip; for Survivors after 60 days: 6-membered group; for Max. ILS %: 60-day observation, versus control; for Therapeutic ratio TR: O.D./ILS30
Procedure, shortened: (§1)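 Dosing started 24 h after ip implantation of 1×10^5 L1210 cells into groups of 6 female BDF1 mice, by ip or oral route daily for 5 consecutive days. Survival was followed for 60 days; increase in life span was scored against untreated mice, with therapeutic ratio from optimum dose over ILS30 dose.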

[3] = Acute toxicity (LD50, Behrens-Karber method); format: in vivo, ICR mice; conditions: mouse, in vivo, ip, mortality during 30 days
Description: Test compounds, dissolved or suspended in 0.5% aqueous CMC, were each intraperitoneally administered to ICR mice in a dose of 0.1 ml per 10 g body weight. LD50 (mg/kg) value of each test compound was calculated from the mortality of mice during 30 days by the Behrens-Karber method.

Leukemia L1210 [4] = assay: Activity against Leukemia L1210, oral, increase in life span of mice; format: in vivo, female mice (BDF1 family); conditions: for ED (maximum ILS) / ED30: Mus musculus, L1210, oral once a day for 5 successive days; for ED (maximum ILS): daily dosage giving maximum increase of life span, read-out: O.D. (optimum dosage); for ED30: daily dosage increasing average survival days by 30%, read-out: ILS30; for Survivors after 60 days / Max. ILS % / Therapeutic ratio TR: oral; for Survivors after 60 days: 6-membered group; for Max. ILS %: 60-day observation, versus control; for Therapeutic ratio TR: O.D./ILS30
Procedure, shortened: as §1

| Structure (SMILES) | Urine volume [1] [ml/kg/5 hrs.] | Cl^- [1] [mEq/kg/5 hrs.] | K^+ [1] [mEq/kg/5 hrs.] | Na^+ [1] [mEq/kg/5 hrs.] | ED (maximum ILS) (Leukemia L1210 [2]) [mg/kg] | ED30 (Leukemia L1210 [2]) [mg/kg] | Survivors after 60 days (Leukemia L1210 [2]) | Max. ILS % (Leukemia L1210 [2]) [%] | Therapeutic ratio TR (Leukemia L1210 [2]) | LD50 at 720 h [3] [mg/kg] | response vs control in vivo at 25 mg/kg (Ehrlich acites carcinoma; read-out: Activity) [%] | response vs control in vivo at 25 mg/kg (Ehrlich acites carcinoma; read-out: T/C %) [%] | response vs control in vivo at 100 mg/kg (Ehrlich acites carcinoma; read-out: Activity) [%] | response vs control in vivo at 100 mg/kg (Ehrlich acites carcinoma; read-out: T/C %) [%] | other results |
| --- | --- | --- | --- | --- | --- | --- | --- | --- | --- | --- | --- | --- | --- | --- | --- |
| CCCCO[C@@H]1O[C@H](CN(C)C(=O)N(CCCl)N=O)[C@@H](O)[C@H](O)[C@H]1O [Compound 4, 3-methyl-3-(n-butyl β-D-glucopyranose-6-yl)-1-(2-chloroethyl)-1-nitrosourea] | 8.6 | 0.6 | 0.9 | 0.5 | 80 | 2.7 | 6/6 | > 700 | 29.6 | 220 | – | – | – | – | response vs control in vivo at 50 mg/kg (Ehrlich acites carcinoma; read-out: Activity): 11 to 40%; response vs control in vivo at 50 mg/kg (Ehrlich acites carcinoma; read-out: T/C %): 30.2%; response vs control in vivo at 200 mg/kg (Ehrlich acites carcinoma; read-out: Activity): 0 to 10%; response vs control in vivo at 200 mg/kg (Ehrlich acites carcinoma; read-out: T/C %): 2.3% |
| CCCCO[C@H]1O[C@H](CN(CCCOC)C(=O)N(CCCl)N=O)[C@@H](O)[C@H](O)[C@H]1O [Compound 10] | 8.7 | 0.6 | 0.8 | 0.5 | 150 | 3.1 | 6/6 | > 700 | 48.4 | 480 | 0 to 10 | 0 | 0 to 10 | 0 | – |
| COCCN(C[C@H]1O[C@H](OCC(C)C)[C@H](O)[C@@H](O)[C@@H]1O)C(=O)N(CCCl)N=O [Compound 15, 3-(2-methoxyethyl)-3-(isobutyl α-D-glucopyranose-6-yl)-1-(2-chloroethyl)-1-nitrosourea] | 9.2 | 0.7 | 0.9 | 0.6 | 180 | 2.9 | 6/6 | > 700 | 62.1 | 570 | 0 to 10 | 0 | 0 to 10 | 0 | – |
| CCOCCCN(C[C@H]1O[C@H](OC(C)CC)[C@H](O)[C@@H](O)[C@@H]1O)C(=O)N(CCCl)N=O (stereo partly drawn) [Compound 19, 3-(3-ethoxy-n-propyl)-3-(sec-butyl α-D-glucopyranose-6-yl)-1-(2-chloroethyl)-1-nitrosourea] | 9.1 | 0.7 | 0.8 | 0.6 | 180 | 3.33 | 6/6 | > 700 | 54.0 | 560 | 0 to 10 | 0 | 0 to 10 | 0 | – |
| COCCN(C[C@H]1O[C@H](OC(C)COC)[C@H](O)[C@@H](O)[C@@H]1O)C(=O)N(CCCl)N=O (stereo partly drawn) [Compound 35, 3-(2-methoxyethyl)-3-(1-methyl-2-methoxyethyl α-D-glucopyranose-6-yl)-1-(2-chloroethyl)-1-nitrosourea] | 8.8 | 0.6 | 0.9 | 0.5 | 150 | 2.23 | 6/6 | > 700 | 67.3 | 470 | 0 to 10 | 0 | 0 to 10 | 0 | – |
| CCCCO[C@H]1O[C@H](CO)[C@@H](O)[C@H](O)[C@H]1N(CCCOC)C(=O)N(CCCl)N=O [Compound 57, 3-(3-methoxy-n-propyl)-3-(n-butyl α-D-glucopyranose-2-yl)-1-(2-chloroethyl)-1-nitrosourea] | 9.7 | 0.8 | 0.9 | 0.7 | 190 | 5.5 | 3/6 | > 355 | 34.5 | 570 | 0 to 10 | 0 | 0 to 10 | 0 | – |
| CCOCCCN(C(=O)N(CCCl)N=O)C1C(OC2CCCCC2)OC(CO)C(O)C1O [Compound 65, 3-(3-ethoxy-n-propyl)-3-(cyclohexyl α-D-glucopyranose-2-yl)-1-(2-chloroethyl)-1-nitrosourea] | 8.8 | 0.7 | 0.8 | 0.6 | 200 | 4.44 | 5/6 | > 620 | 45.0 | 655 | 0 to 10 | 0 | 0 to 10 | 0 | – |
| CC(C)CO[C@@H]1O[C@H](CN(C(=O)N(CCCl)N=O)C(C)(C)C)[C@@H](O)[C@H](O)[C@H]1O [Compound 175, 3-tert-butyl-3-(isobutyl β-D-glucopyranose-6-yl)-1-(2-chloroethyl)-1-nitrosourea] | 9.4 | 0.8 | 0.9 | 0.6 | 170 | 3.33 | 6/6 | > 700 | 51.0 | 550 | – | – | – | – | – |
| CC(CN1CCOCC1)O[C@@H]1O[C@H](CN(C(=O)N(CCCl)N=O)C(C)(C)C)[C@@H](O)[C@H](O)[C@H]1O (stereo partly drawn) [Compound 200, 3-tert-butyl-3-(1-morpholinoisopropyl β-D-glucopyranose-6-yl)-1-(2-chloroethyl)-1-nitrosourea] | – | – | – | – | 150 | 3.11 | 6/6 | > 700 | 48.2 | 480 | 0 to 10 | 0 | 0 to 10 | 0 | ED (maximum ILS) (Leukemia L1210 [4]): 190 mg/kg; ED30 (Leukemia L1210 [4]): 10.1 mg/kg; Survivors after 60 days (Leukemia L1210 [4]): 4/6; Max. ILS % (Leukemia L1210 [4]): > 460%; Therapeutic ratio TR (Leukemia L1210 [4]): 18.9 |
| O=NN(CCCl)C(=O)N[C@@H]1O[C@H](CO)[C@@H](O)[C@H](O)[C@H]1O [GANU, 3-(β-D-glucopyranosyl)-1-(2-chloroethyl)-1-nitrosourea, reference compound] | – | – | – | – | 6.2 | 0.45 | 4/6 | > 425 | 13.8 | 35 | – | – | – | – | ED (maximum ILS) (Leukemia L1210 [4]): 6.35 mg/kg; ED30 (Leukemia L1210 [4]): 2.5 mg/kg; Survivors after 60 days (Leukemia L1210 [4]): 0/6; Max. ILS % (Leukemia L1210 [4]): 94%; Therapeutic ratio TR (Leukemia L1210 [4]): 2.54; Activity (toxicity in words) (Ehrlich acites carcinoma; 25.0 mg/kg/day ip): Toxic (6/6); response vs control in vivo at 3.2 mg/kg (Ehrlich acites carcinoma; read-out: Activity): 0 to 10%; response vs control in vivo at 3.2 mg/kg (Ehrlich acites carcinoma; read-out: T/C %): 0%; response vs control in vivo at 12.5 mg/kg (Ehrlich acites carcinoma; read-out: Activity): 0 to 10%; response vs control in vivo at 12.5 mg/kg (Ehrlich acites carcinoma; read-out: T/C %): 0% |
